What is called IC50 is the concentration that gives 50% inhibition.

The target in the assay is T1, Nav1.7 (or SCN9A) channel; HEK cells stably transfected with hSCN9A (Homo sapiens, UniProt Q15858).
T1 construct: expressed in transfected cells
Put plainly: Nav1.7 block, PatchXpress 7000 automated whole-cell voltage clamp, estimated IC50 (EIC50). Particulars: estimated IC50; hSCN9A HEK cells, PatchXpress platform; Examples 815-1040. Type of assay: cell-based.

T1 sequence (Q15858 whole entry): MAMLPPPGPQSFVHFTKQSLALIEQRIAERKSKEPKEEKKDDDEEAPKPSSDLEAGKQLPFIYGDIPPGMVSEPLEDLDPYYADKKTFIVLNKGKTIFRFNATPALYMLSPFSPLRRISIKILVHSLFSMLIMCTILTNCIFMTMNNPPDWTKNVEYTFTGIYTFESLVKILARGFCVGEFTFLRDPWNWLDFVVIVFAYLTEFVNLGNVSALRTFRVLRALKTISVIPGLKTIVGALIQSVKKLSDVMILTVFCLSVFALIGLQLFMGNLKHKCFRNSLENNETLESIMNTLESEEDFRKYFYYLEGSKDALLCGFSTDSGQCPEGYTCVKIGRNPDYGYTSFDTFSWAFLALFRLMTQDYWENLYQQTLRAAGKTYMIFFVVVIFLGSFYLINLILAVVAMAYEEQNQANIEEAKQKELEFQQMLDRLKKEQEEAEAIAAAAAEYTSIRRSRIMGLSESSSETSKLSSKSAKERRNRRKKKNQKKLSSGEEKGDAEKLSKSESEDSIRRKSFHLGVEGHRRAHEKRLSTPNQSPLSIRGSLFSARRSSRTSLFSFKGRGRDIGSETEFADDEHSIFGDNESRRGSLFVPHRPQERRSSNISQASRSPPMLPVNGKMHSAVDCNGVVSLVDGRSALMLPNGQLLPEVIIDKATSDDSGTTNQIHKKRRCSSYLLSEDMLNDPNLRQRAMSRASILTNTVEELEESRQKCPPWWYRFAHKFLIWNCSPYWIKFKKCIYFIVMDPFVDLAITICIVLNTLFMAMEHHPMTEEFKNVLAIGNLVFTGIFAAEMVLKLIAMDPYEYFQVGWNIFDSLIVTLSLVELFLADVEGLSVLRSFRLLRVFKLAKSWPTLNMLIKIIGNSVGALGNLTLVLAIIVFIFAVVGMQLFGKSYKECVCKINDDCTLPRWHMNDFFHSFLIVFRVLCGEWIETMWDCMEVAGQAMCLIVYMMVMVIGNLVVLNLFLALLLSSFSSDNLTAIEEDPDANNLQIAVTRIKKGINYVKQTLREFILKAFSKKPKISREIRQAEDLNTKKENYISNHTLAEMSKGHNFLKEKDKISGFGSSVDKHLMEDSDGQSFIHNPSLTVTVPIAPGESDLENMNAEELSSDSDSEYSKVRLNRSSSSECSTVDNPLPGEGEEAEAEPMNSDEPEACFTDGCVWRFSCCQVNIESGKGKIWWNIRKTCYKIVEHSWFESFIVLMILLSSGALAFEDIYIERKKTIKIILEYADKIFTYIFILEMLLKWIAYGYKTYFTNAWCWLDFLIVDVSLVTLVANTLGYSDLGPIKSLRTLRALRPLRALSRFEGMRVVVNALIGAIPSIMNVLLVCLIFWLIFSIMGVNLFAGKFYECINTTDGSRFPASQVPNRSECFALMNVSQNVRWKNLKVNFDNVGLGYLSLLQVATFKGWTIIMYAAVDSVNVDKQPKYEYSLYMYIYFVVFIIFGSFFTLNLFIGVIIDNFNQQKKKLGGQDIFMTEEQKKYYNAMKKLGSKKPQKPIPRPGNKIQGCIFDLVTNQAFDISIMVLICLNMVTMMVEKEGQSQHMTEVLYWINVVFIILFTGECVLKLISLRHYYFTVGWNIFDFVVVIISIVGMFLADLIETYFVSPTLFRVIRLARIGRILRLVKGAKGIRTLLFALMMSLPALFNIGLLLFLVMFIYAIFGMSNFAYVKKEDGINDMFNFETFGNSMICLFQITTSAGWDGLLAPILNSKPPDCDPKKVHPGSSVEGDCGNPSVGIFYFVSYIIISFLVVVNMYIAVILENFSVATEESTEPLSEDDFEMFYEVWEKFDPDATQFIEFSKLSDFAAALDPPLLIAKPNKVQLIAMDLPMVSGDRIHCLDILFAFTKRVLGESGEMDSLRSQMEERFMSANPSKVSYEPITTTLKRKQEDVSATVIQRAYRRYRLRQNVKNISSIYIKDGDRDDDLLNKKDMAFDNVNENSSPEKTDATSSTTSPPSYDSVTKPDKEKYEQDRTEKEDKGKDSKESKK

With `N#Cc1cc(S(=O)(=O)Nc2ncns2)ccc1Oc1ccc(Cl)cc1C1CNC1` [Example 906, 4-(2-azetidin-3-yl-4-chlorophenoxy)-3-cyano-N-1,2,4-thiadiazol-5-ylbenzenesulfonamide], the 50% inhibitory concentration (IC50) is 57 nM. Consider `Cc1nonc1NS(=O)(=O)c1ccc(Oc2ccc(Cl)cc2-c2ccnn2C)c(C#N)c1` [Example 907, 4-[4-chloro-2-(1-methyl-1H-pyrazol-5-yl)phenoxy]-3-cyano-N-(4-methyl-1,2,5-oxadiazol-3-yl)benzenesulfonamide], for which the IC50 is above 10000 nM. As for `Cn1cc(-c2cc(Cl)ccc2Oc2ccc(S(=O)(=O)Nc3ncns3)cc2C#N)ccc1=O` [Example 908, 4-[4-chloro-2-(1-methyl-6-oxo-1,6-dihydropyridin-3-yl)phenoxy]-3-cyano-N-1,2,4-thiadiazol-5-ylbenzenesulfonamide], the figure is 780 nM; as for `O=S(=O)(Nc1ncns1)c1cc(Cl)c(Oc2ccc(OC(F)(F)F)cc2-c2ccnnc2)cc1F` [Example 909, 5-chloro-2-fluoro-4-[2-pyridazin-4-yl-4-(trifluoromethoxy)phenoxy]-N-1,2,4-thiadiazol-5-ylbenzenesulfonamide], 2.1 nM; as for `O=S(=O)(Nc1ncns1)c1cc(Cl)c(Oc2ccc(Cl)cc2-c2ccnnc2)cc1F` [Example 910, 5-chloro-4-(4-chloro-2-pyridazin-4-ylphenoxy)-2-fluoro-N-1,2,4-thiadiazol-5-ylbenzenesulfonamide], 12 nM.

Turning to `O=S(=O)(Nc1cscn1)c1ccc(Oc2ccc(Cl)cc2-c2ccn[nH]2)c(Cl)c1` [Example 911, 3-chloro-4-[4-chloro-2-(1H-pyrazol-5-yl)phenoxy]-N-1,3-thiazol-4-ylbenzenesulfonamide], the half-maximal inhibitory concentration (IC50) was 170 nM. `Nc1[nH]ncc1-c1cc(Cl)ccc1Oc1ccc(S(=O)(=O)Nc2cscn2)cc1Cl` [Example 912, 4-[2-(5-amino-1H-pyrazol-4-yl)-4-chlorophenoxy]-3-chloro-N-1,3-thiazol-4-ylbenzenesulfonamide]: the IC50 was 14 nM.

In the case of `Nc1[nH]ncc1-c1cc(Cl)ccc1Oc1ccc(S(=O)(=O)Nc2ncns2)cc1Cl` [Example 913, 4-[2-(5-amino-1H-pyrazol-4-yl)-4-chlorophenoxy]-3-chloro-N-1,2,4-thiadiazol-5-ylbenzenesulfonamide], the half-maximal inhibitory concentration (IC50) is 0.9 nM. As for `Cc1cnncc1-c1cc(Cl)ccc1Oc1ccc(S(=O)(=O)Nc2ncns2)cc1C#N` [Example 914, 4-[4-chloro-2-(5-methylpyridazin-4-yl)phenoxy]-3-cyano-N-1,2,4-thiadiazol-5-ylbenzenesulfonamide], the figure is 180 nM. As to `Cn1nccc1-c1cc(Cl)ccc1Oc1ccc(S(=O)(=O)Nc2cccnn2)cc1C#N` [Example 915, 4-[4-chloro-2-(1-methyl-1H-pyrazol-5-yl)phenoxy]-3-cyano-N-pyridazin-3-ylbenzenesulfonamide], the half-inhibitory concentration (IC50) is 1600 nM.

Turning to `COc1nccnc1NS(=O)(=O)c1ccc(Oc2ccc(Cl)cc2-c2ccnn2C)c(C#N)c1` [Example 916, 4-[4-chloro-2-(1-methyl-1H-pyrazol-5-yl)phenoxy]-3-cyano-N-(3-methoxypyrazin-2-yl)benzenesulfonamide], the IC50 was above 10000 nM. As for `O=S(=O)(Nc1nncs1)c1cc(F)c(Oc2ccc(C(F)(F)F)cc2-c2ccnnc2)cc1F` [Example 917, 2,5-difluoro-4-[2-pyridazin-4-yl-4-(trifluoromethyl)phenoxy]-N-1,3,4-thiadiazol-2-ylbenzenesulfonamide], the figure is 240 nM. As for `Nc1cc(-c2cc(Cl)ccc2Oc2cc(F)c(S(=O)(=O)Nc3cnccn3)cc2Cl)ccn1` [Example 918, 4-[2-(2-aminopyridin-4-yl)-4-chlorophenoxy]-5-chloro-2-fluoro-N-pyrazin-2-ylbenzenesulfonamide], the IC50 was 140 nM.

As for `N#Cc1cc(S(=O)(=O)Nc2nncs2)ccc1Oc1ccc(Cl)cc1-c1ccnc(N2CCC2)c1` [Example 919, 4-[2-(2-azetidin-1-ylpyridin-4-yl)-4-chlorophenoxy]-3-cyano-N-1,3,4-thiadiazol-2-ylbenzenesulfonamide], the IC50 was 24 nM.

The record behind these values is patent publication US8541588B2, “Sulfonamide derivatives” (Pfizer Limited, priority 2009, dated 2013).
